Laboratory results as given in article PMC6017732, “Identification and Characterizations of Novel, Selective Histone Methyltransferase SET7 Inhibitors by Scaffold Hopping- and 2D-Molecular Fingerprint-Based Similarity Search” (Molecules : A Journal of Synthetic Chemistry and Natural …, 2018).

Molecular target: T1, SET7 (Homo sapiens, UniProt Q8WTS6)
T1 sequence (Q8WTS6 1-366): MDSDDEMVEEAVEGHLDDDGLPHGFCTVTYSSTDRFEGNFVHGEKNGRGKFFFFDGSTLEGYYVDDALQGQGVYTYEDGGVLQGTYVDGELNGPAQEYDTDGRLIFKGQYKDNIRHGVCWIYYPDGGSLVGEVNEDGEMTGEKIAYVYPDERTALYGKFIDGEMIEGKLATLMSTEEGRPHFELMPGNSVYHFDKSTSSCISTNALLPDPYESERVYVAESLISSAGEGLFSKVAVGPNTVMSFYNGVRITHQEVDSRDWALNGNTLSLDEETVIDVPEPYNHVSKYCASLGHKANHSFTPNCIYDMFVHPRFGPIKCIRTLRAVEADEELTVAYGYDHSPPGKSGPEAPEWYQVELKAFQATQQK
Experiment: AlphaLISA SET7 inhibition assay
Type: biochemical
Conditions: AlphaLISA assay, SAR discussion
Procedure: AlphaLISA assays were applied to determine the inhibitory activity targeting SET7. The purified SET7 protein was incubated in modified Tris buffer in 384-well plates (Perkin Elmer, Cat. No. 6007299, Waltham, MA, USA) at room temperature for 15 min. The compounds were transferred to the assay plate using Echo in 100% DMSO, and substrate solution was added to each well to start the reaction. Acceptor and donor beads were added and incubated for 60 min at room temperature, shielded from light. The endpoint was evaluated with EndSpire in Alpha mode. The experimental data was fitted in GraphPad Prism 5 to obtain inhibition values using the equation as follows:(1) Inhibition %= Max−Siginal/Max−Min×100%

| activity against SET7 (in words) | Compound |
| --- | --- |
| no activity | COc1cc(/C=N/NC(=O)c2ccc(-c3ccccc3)cc2)c([N+](=O)[O-])cc1OC [DC-S305] |

Same assay, conditions: AlphaLISA assay, SET7

| IC50 | Compound |
| --- | --- |
| 9.9 µM | O=C(NNC(=O)c1ccc([N+](=O)[O-])cc1)c1ccc(-c2ccccc2)cc1 [DC-S334] |
| 46 µM | O=C(CCC(=O)N/N=C/c1cc([N+](=O)[O-])ccc1Cl)NCc1ccccc1 [DC-S314] |
| 20 µM | COc1cc(/C=N/NC(=O)c2ccc(-c3ccccc3)cc2)ccc1OC(C)=O [DC-S306] |
| 3.4 µM | O=C(NN=Cc1cc2c(cc1Br)OCO2)c1ccc([N+](=O)[O-])cc1 [DC-S351] |
| 3.7 µM | O=C(NN=Cc1ccc(-c2ccccc2Cl)o1)c1ccc([N+](=O)[O-])cc1 [DC-S364] |

Same assay, conditions: AlphaLISA assay, SET7, 100 μM; read-out: Inhibition Ratio at 100 μM/%

| Compound | inhibition at 100 µM |
| --- | --- |
| COc1ccc(C(=O)NN=Cc2ccc([N+](=O)[O-])cc2)cc1OC [DC-S365] | 10% |
| O=C(CCc1ccccc1)NNC(=O)c1ccc(-c2ccccc2)cc1 [DC-S340] | -6% |
| O=C(NNC(=O)c1ccc(-c2ccccc2)cc1)c1ccc(F)cc1 [DC-S339] | -6% |
| Cc1c(C=NNC(=O)c2ccc([N+](=O)[O-])cc2)cnn1C [DC-S348] | -11% |
| O=C(NNC(=O)C(F)(F)F)c1ccc(-c2ccccc2)cc1 [DC-S342] | -13% |
| O=C(NN=Cc1cc2c(cc1[N+](=O)[O-])OCO2)c1ccc([N+](=O)[O-])cc1 [DC-S349] | -1% |
| COc1cc(/C=N/NC(=O)c2ccc(-c3ccccc3)cc2)c([N+](=O)[O-])cc1OC [DC-S305] | -5% |
| COc1ccc(C=NNC(=O)c2ccc([N+](=O)[O-])cc2)cc1 [DC-S353] | 35% |
| O=C(NNC(=O)c1ccc([N+](=O)[O-])cc1)c1ccc(-c2ccccc2)cc1 [DC-S334] | 96% |
| O=C(CCC(=O)N/N=C/c1cc([N+](=O)[O-])ccc1Cl)NCc1ccccc1 [DC-S314] | 77% |
| Nc1ccc(C=NNC(=O)c2ccc([N+](=O)[O-])cc2)cc1 [DC-S346] | 21% |
| O=C(NN=Cc1cc([N+](=O)[O-])ccc1N1CCCCC1)c1ccc([N+](=O)[O-])cc1 [DC-S354] | 35% |
| COc1ccc(/C=N/NC(=O)c2ccc(-c3ccccc3)cc2)cc1O [DC-S307] | 8% |
| O=C(N/N=C/c1cc([N+](=O)[O-])ccc1Cl)c1ccc(O)cc1O [DC-S321] | 9% |
| O=C(NN=Cc1ccccc1OCc1cccc(Br)c1)c1ccc([N+](=O)[O-])cc1 [DC-S363] | -15% |
| O=C(NN=Cc1c[nH]nc1-c1ccc(Cl)cc1)c1ccc([N+](=O)[O-])cc1 [DC-S356] | 17% |
| COc1cc(/C=N/NC(=O)c2ccc(-c3ccccc3)cc2)ccc1OC(C)=O [DC-S306] | 94% |
| O=C(NN=Cc1ccccc1OC(=O)c1ccc([N+](=O)[O-])cc1)c1ccc([N+](=O)[O-])cc1 [DC-S355] | 20% |
| O=C(NNC(=O)c1ccc(-c2ccccc2)cc1)c1ccccc1 [DC-S337] | 1% |
| O=C(N/N=C/c1ccc(Cl)c([N+](=O)[O-])c1)c1ccc(-c2ccccc2)cc1 [DC-S304] | 44% |
| COC(=O)N/N=C/c1cc([N+](=O)[O-])ccc1Cl [DC-S318] | 17% |
| COc1ccc(-c2ccc(C=NNC(=O)c3ccc([N+](=O)[O-])cc3)o2)cc1Cl [DC-S360] | 4% |
| O=C(NN=Cc1ccc(Cl)s1)c1ccc([N+](=O)[O-])cc1 [DC-S344] | 32% |
| O=C(NN=Cc1ccc(-c2ccccc2Cl)o1)c1ccc([N+](=O)[O-])cc1 [DC-S364] | 54% |
| O=C(NN=Cc1ccccc1OC(=O)c1ccc(Cl)cc1)c1ccc([N+](=O)[O-])cc1 [DC-S358] | 6% |

Next, values leading:

| inhibition at 100 µM | Compound |
| --- | --- |
| 9% | O=C(NN=Cc1ccc([N+](=O)[O-])cc1)c1ccc(CSc2ccccc2)cc1 [DC-S366] |
| 37% | O=C(N/N=C/c1cc([N+](=O)[O-])ccc1Cl)c1cccc(O)c1 [DC-S316] |
| -10% | O=C(NNC(=O)c1ccccc1C(=O)O)c1ccc(-c2ccccc2)cc1 [DC-S341] |
| 12% | O=C(NNC(=O)c1cccc([N+](=O)[O-])c1)c1ccc(-c2ccccc2)cc1 [DC-S335] |
| -5% | Cc1cccc(/C=N/NC(=O)c2ccc(-c3ccccc3)cc2)c1 [DC-S309] |
| 29% | O=C(NN=Cc1cccc(Cl)c1)c1ccc([N+](=O)[O-])cc1 [DC-S345] |
| 11% | O=C(N/N=C/c1cc([N+](=O)[O-])ccc1Cl)c1ccc(O)cc1 [DC-S320] |
| 7% | COc1ccc(/C=N/NC(=O)c2ccc(-c3ccccc3)cc2)c(OC)c1Br [DC-S308] |
| -1% | COc1ccc2ccccc2c1C=NNC(=O)c1ccc([N+](=O)[O-])cc1 [DC-S361] |
| -6% | O=C(N/N=C/c1c(Cl)cccc1Cl)c1ccc(-c2ccccc2)cc1 [DC-S313] |
| -4% | COc1cc(C=NNC(=O)c2ccc([N+](=O)[O-])cc2)ccc1OC(C)=O [DC-S362] |
| 10% | O=C(NN=Cc1ccc[nH]1)c1ccc([N+](=O)[O-])cc1 [DC-S347] |
| 49% | COc1ccc(C(=O)NNC(=O)c2ccc(-c3ccccc3)cc2)cc1 [DC-S336] |
| 46% | O=C(N/N=C/c1cc([N+](=O)[O-])ccc1Cl)C(c1ccccc1)c1ccccc1 [DC-S315] |
| 39% | COc1cc(OC)c(C=NNC(=O)c2ccc([N+](=O)[O-])cc2)cc1Br [DC-S352] |
| -1% | O=C(NN=Cc1ccc([N+](=O)[O-])cc1)c1cccc(Cl)c1 [DC-S367] |
| -3% | O=C(N/N=C/c1cccc(Cl)c1Cl)c1ccc(-c2ccccc2)cc1 [DC-S312] |
| -6% | CCOc1ccc(/C=N/NC(=O)c2ccc(-c3ccccc3)cc2)c(OCC)c1 [DC-S310] |
| 96% | O=C(NN=Cc1cc2c(cc1Br)OCO2)c1ccc([N+](=O)[O-])cc1 [DC-S351] |
| 13% | COc1ccc(C=NNC(=O)c2ccc([N+](=O)[O-])cc2)c2ccccc12 [DC-S357] |
| 5% | O=C(NN=Cc1c(OC(=O)c2ccc(Cl)cc2)ccc2ccccc12)c1ccc([N+](=O)[O-])cc1 [DC-S359] |
| 6% | O=C(NN=Cc1cn(Cc2ccc(Cl)cc2Cl)c2ccccc12)c1ccc([N+](=O)[O-])cc1 [DC-S350] |
| 14% | Nc1ccccc1C(=O)N/N=C/c1cc([N+](=O)[O-])ccc1Cl [DC-S319] |
| 1% | O=C(NNC(=O)c1cccc(Cl)c1)c1ccc(-c2ccccc2)cc1 [DC-S338] |

Tested on: SET7
Experiment: not given
Conditions: SET7, previous research of the authors; cited from earlier work

| Compound | IC50 |
| --- | --- |
| COC(=O)c1c(N)sc(C(=O)Nc2cccc([N+](=O)[O-])c2)c1C [DC-S238] | 4.9 µM |
| CCOC(=O)c1c(N)sc(C(=O)Nc2cccc([N+](=O)[O-])c2)c1C [DC-S239] | 4.6 µM |

Same assay, conditions: SET7; cited from earlier work

| Compound | IC50 |
| --- | --- |
| O=C([C@@H](Cc1cccc(C(F)(F)F)c1)NS(=O)(=O)c1cc(F)c2c(c1)CCNC2)N1CCCC1 [(R)-PFI-2] | 0.002 µM |

Molecular target: T1, SET7
Experiment: 3H-labeled radioisotope methylation assay
Type: biochemical
Conditions: 3H radioactive methylation assay
Procedure: As for ^3Hradioactive methylation assay, SAH was used as the reference compound and the compounds were tested in 10 concentrations in duplicate in modified Tris buffer (1× assay buffer). The following materials were purchased: SET7 (Enzo, Cat. No. ALX-201-178, New York, NY, USA), [^3H]-SAM (PerkinElmer Inc., Lot. No. 1790854), SAH (Sigma, Cat. No. A9384-25MG, St. Louis, MO, USA) and 384-well Flashplate (Perkin Elmer, Cat. No. SMP410A001PK,). The compounds were transferred to the assay plate by Echo 550 with 3-fold dilution in 100% DMSO where the final DMSO concentration is 1%. Then the enzyme solution was transferred to the assay plate and 1× assay buffer was transferred for low control. After 15 min incubation at room temperature, peptide and [^3H]-SAM mix solution was transferred to each well to start the reaction. The cold SAM in 1× buffer was added to each well to stop the reaction after 60 min incubation at room temperature. 25 μL of the whole reaction system per well was transferred to Flashplate which was washed with dH2O and 0.1% Tween-20 for three times after 60 min incubation. The data was read on Microbeta. All the inhibition assays are performed in duplicate.

| IC50 | Compound |
| --- | --- |
| 5.4 µM | Nc1ncnc2c1ncn2[C@@H]1O[C@H](CSCC[C@H](N)C(=O)O)[C@@H](O)[C@H]1O [SAH, reference compound] |
